The results in this text go back to ChEMBL document CHEMBL2407045, “Discovery and gram-scale synthesis of BMS-593214, a potent, selective FVIIa inhibitor” (Bioorg Med Chem Lett, 2013).

The species entered for data set [1] is Oryctolagus cuniculus. The experiment in a line: Antithrombotic activity in rabbit electric current arterial thrombosis model. It counts as functional, organism-based.
The species named for data set [2] is Oryctolagus cuniculus. The experiment in a line: Toxicity in rabbit assessed as prolongation of cuticle bleeding time. The data set is classed as organism-based. The conditions noted are these: in vivo.
For a further data set, the target named is T1, Coagulation factor VII (Homo sapiens, UniProt P08709).
T1 sequence (P08709 whole entry): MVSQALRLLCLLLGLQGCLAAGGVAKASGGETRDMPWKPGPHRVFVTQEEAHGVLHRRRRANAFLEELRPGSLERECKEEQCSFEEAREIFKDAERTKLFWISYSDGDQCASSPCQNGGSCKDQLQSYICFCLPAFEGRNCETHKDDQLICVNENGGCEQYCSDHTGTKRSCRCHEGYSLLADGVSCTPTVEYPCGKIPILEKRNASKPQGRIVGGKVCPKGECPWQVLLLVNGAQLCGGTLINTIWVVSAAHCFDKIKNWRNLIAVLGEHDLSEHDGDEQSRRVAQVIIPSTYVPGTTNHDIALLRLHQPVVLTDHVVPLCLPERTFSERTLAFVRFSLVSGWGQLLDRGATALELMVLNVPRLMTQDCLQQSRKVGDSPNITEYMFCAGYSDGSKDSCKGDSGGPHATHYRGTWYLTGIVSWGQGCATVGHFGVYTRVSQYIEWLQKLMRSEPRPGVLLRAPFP
The data set is described as follows: Inhibition of recombinant human coagulation factor 7A.

The next data set addresses Trypsin (Homo sapiens, UniProt P07477+P07478+P35030). The experiment in a line: Inhibition of purified human trypsin. The data set is classed as protein assay.
Another data set concerns the target Coagulation factor X (Homo sapiens, UniProt P00742). The data set is described as follows: Inhibition of purified human coagulation factor 10a.
For the next data set, the target named is Prothrombin (Homo sapiens, UniProt P00734). The experiment in a line: Inhibition of purified human thrombin.
Data set [3] in a line: Anticoagulant activity in plasma (unknown origin) assessed as concentration required to double prothrombin time. It counts as functional.

As usually defined, the EC50 is the midpoint of the concentration-response curve. A high value points to lower potency in that assay. As usually defined, the Ki is the dissociation constant of the complex between target and ligand, obtained from inhibition or displacement.

Molecules are shown by their SMILES.

Sequence of Coagulation factor X (P00742 41-179 limits assumed): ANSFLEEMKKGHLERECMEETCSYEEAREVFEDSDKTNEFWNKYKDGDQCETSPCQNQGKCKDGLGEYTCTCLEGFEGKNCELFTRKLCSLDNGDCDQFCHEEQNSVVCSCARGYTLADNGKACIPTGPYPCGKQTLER
Sequence of Coagulation factor X (P00742 235-488 limits assumed): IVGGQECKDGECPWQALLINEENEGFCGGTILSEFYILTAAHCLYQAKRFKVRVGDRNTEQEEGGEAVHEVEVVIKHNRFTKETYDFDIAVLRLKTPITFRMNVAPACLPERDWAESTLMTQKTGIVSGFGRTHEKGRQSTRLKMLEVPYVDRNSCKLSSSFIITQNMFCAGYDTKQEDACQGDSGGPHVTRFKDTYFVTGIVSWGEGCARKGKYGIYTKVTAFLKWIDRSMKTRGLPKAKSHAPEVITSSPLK

On to `COc1cc([C@@H]2Nc3ccc(C(=N)N)cc3[C@H]3c4ccccc4C[C@H]32)c(-c2ccc(C(=O)O)cc2)cc1O`, for which, in the data set listed under Oryctolagus cuniculus [1], the response was half-maximal at 570 nM (EC50). In addition, the Activity entry in the data set filed under Oryctolagus cuniculus [2] was “Non-toxic”.
Take `C[C@]1(c2ccccc2)C[C@H](c2ccc(O)cc2)Nc2ccc(C(=N)N)cc21`: the Ki at Coagulation factor VII came to 8800 nM.
The same measure, in the same setting: then `COc1cc([C@H]2C[C@H](c3ccccc3)c3cc(C(=N)N)ccc3N2)ccc1O`, with 1800 nM.
Regarding `COc1cc([C@@H]2Nc3ccc(C(=N)N)cc3[C@H]3c4ccccc4C[C@H]32)ccc1O` (racemic), the Ki was 300 nM on Trypsin, 160 nM at Coagulation factor VII, over 500 nM on Coagulation factor X and 300 nM on Prothrombin.
In the case of `COc1cc([C@@H]2Nc3ccc(C(=N)N)cc3[C@H]3c4ccccc4C[C@H]32)c(-c2ccccc2C(=O)O)cc1O` (racemic), the Ki on Trypsin came out at 7.5 nM; on Coagulation factor VII, 0.62 nM; on Coagulation factor X, 16 nM; at Prothrombin, 35 nM.
For `COc1cc([C@@H]2Nc3ccc(C(=N)N)cc3[C@H]3c4ccccc4C[C@H]32)c(-c2cccc(C(=O)O)c2)cc1O` (racemic) the same measures were 6900 nM, 8.1 nM, 1500 nM and 330 nM.
`COc1cc([C@@H]2Nc3ccc(C(=N)N)cc3[C@H]3c4ccccc4C[C@H]32)c(-c2ccc(C(=O)O)cc2)cc1O` (racemic): the Ki on Trypsin is over 8000 nM; on Coagulation factor VII, 1.9 nM; at Coagulation factor X it was 1300 nM; on Prothrombin, 1800 nM. For the same molecule, the 2PT in data set [3] amounted to 16 µM.
